According to the supplement of paper PMC11061612:

What was measured:
[1] = test system: HOS (Osteosarcoma); assay: combination Emax (second highest fraction inhibited in the dose matrix, 72 h); higher = more inhibition; extreme values may be limits of the assay
Procedure, shortened: (§1)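 After 24 hours at 37°C and 5% CO2 in 1536-well plates, cells in DMEM/F12 or RPMI plus 10% FBS received two-drug dose matrices for 72 hours. Viability came from CellTiter-Glo 2.0 luminescence and was scaled as inhibition, anchored at 0 by vehicle wells and at 1 by blank wells. Combination Emax is taken as the second-highest inhibition in the matrix, and Bliss excess as the observed combination effect less EA + EB − EA·EB, with EA and EB the single-agent effects.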

[2] = test system: KYSE-520 (Esophageal Squamous Cell Carcinoma); assay: as above
Procedure, shortened: as §1

[3] = test system: HT-1376 (Bladder Carcinoma); assay: as above
Procedure, shortened: as §1

[4] = test system: CaR-1 (Colorectal Carcinoma); assay: as above
Procedure, shortened: as §1

[5] = test system: NCI-H82 (Small Cell Lung Carcinoma); assay: as above
Procedure, shortened: as §1

[6] = test system: SK-ES-1 (Ewing's Sarcoma); assay: as above
Procedure, shortened: as §1

[7] = test system: NOS-1 (Osteosarcoma); assay: Bliss excess, mean over the matrix (fraction); higher = more synergy
Procedure, shortened: as §1

[8] = test system: OVCA420 (Ovarian Carcinoma); assay: as above
Procedure, shortened: as §1

[9] = test system: RC-K8 (B-Cell Non-Hodgkin's Lymphoma); assay: as above
Procedure, shortened: as §1

[10] = test system: NB10 (Neuroblastoma); assay: as above
Procedure, shortened: as §1

[11] = test system: ME-1 (Acute Myeloid Leukemia); assay: as above
Procedure, shortened: as §1

[12] = test system: DoTc2-4510 (Cervical Carcinoma); assay: as above
Procedure, shortened: as §1

[13] = test system: LB831-BLC (Bladder Carcinoma); assay: as above
Procedure, shortened: as §1

[14] = test system: RO82-W-1 (Thyroid Gland Carcinoma); assay: as above
Procedure, shortened: as §1

[15] = test system: T98G (Glioblastoma); assay: as above
Procedure, shortened: as §1

[16] = test system: LU-135 (Small Cell Lung Carcinoma); assay: as above
Procedure, shortened: as §1

[17] = test system: Hs-578-T (Breast Carcinoma); assay: as above
Procedure, shortened: as §1

[18] = test system: DEL (T-Cell Non-Hodgkin's Lymphoma); assay: as above
Procedure, shortened: as §1

[19] = test system: KELLY (Neuroblastoma); assay: as above
Procedure, shortened: as §1

[20] = test system: KURAMOCHI (Ovarian Carcinoma); assay: as above
Procedure, shortened: as §1
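Wherever Bliss excess, mean over the matrix is given: after 72 h of two-drug dosing.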

For `Cc1c2c(nn1C)CSCc1cc(n(C)n1)CSc1cc(c3ccccc3c1)OCCCc1c(C(=O)O)n(C)c3c-2c(Cl)ccc13` [AZD5991] + Cn1cnc2c(F)c(Nc3ccc(Br)cc3Cl)c(C(=O)NOCCO)cc21 [Selumetinib] (first compound max 1 µM, 7x7, partner max 3 µM), the “combination Emax” value [1] was 0.229, the “combination Emax” value [2] was 0.355 and the “combination Emax” value [3] was 0.272. The “combination Emax” value [4] was 0.168, the “combination Emax” value [5] was 0.922 and the “combination Emax” value [6] was 0.809. For the same compound, the Bliss excess [7] was 0.0887, the Bliss excess [8] was 0.0316 and the Bliss excess [9] was 0.0127. For the same compound, the Bliss excess [10] was 0.0122, the Bliss excess [11] was 0.162 and the Bliss excess [12] was 0.0343. It also gave a Bliss excess [13] of -0.018, a Bliss excess [14] of -0.0528 and a Bliss excess [15] of 0.0157. For the same compound, the Bliss excess [16] was -0.0003, the Bliss excess [17] was -0.0568 and the Bliss excess [18] was 0.0049. It also gave a Bliss excess [19] of 0.0281 and a Bliss excess [20] of 0.031.
In the case of `NC1(C(=O)N[C@@H](CCO)c2ccc(Cl)cc2)CCN(c2ncnc3[nH]ccc23)CC1` [Capivasertib] + CC(=O)c1c(C)c2cnc(Nc3ccc(N4CCNCC4)cn3)nc2n(C2CCCC2)c1=O [Palbociclib] (first compound max 10 µM, 7x7, partner max 10 µM), the “combination Emax” value [1] is reported as 0.504, the “combination Emax” value [2] is reported as 0.638 and the “combination Emax” value [3] is reported as 0.144. The “combination Emax” value [4] was 0.436, the “combination Emax” value [5] was 0.836 and the “combination Emax” value [6] was 0.655. The Bliss excess [7] was -0.0389, the Bliss excess [8] was 0.0261 and the Bliss excess [9] was -0.0014. The Bliss excess [10] was 0.0232, the Bliss excess [11] was -0.11 and the Bliss excess [12] was -0.0983. The Bliss excess [13] was -0.0586, the Bliss excess [14] was -0.0125 and the Bliss excess [15] was 0.0304. It also gave a Bliss excess [16] of -0.0357, a Bliss excess [17] of 0.0324 and a Bliss excess [18] of 0.0706. It also gave a Bliss excess [19] of 0.151 and a Bliss excess [20] of -0.0124.
`NC1(C(=O)N[C@@H](CCO)c2ccc(Cl)cc2)CCN(c2ncnc3[nH]ccc23)CC1` [Capivasertib] + CC(C)n1c(=O)n(C)c2cnc3cc(F)c(-c4ccc(OCCCN5CCCCC5)nc4)cc3c21 [AZD1390] (first compound max 10 µM, 7x7, partner max 0.3 µM) was tested, and the “combination Emax” value [1] was 0.41, the “combination Emax” value [2] was 0.467 and the “combination Emax” value [3] was 0.144. For the same compound, the “combination Emax” value [4] was 0.365, the “combination Emax” value [5] was 0.912 and the “combination Emax” value [6] was 0.448. It also gave a Bliss excess [7] of -0.0117, a Bliss excess [8] of -0.0406 and a Bliss excess [9] of -0.0149. It also gave a Bliss excess [10] of -0.0544, a Bliss excess [11] of -0.0319 and a Bliss excess [12] of -0.0976. It also gave a Bliss excess [13] of -0.0383, a Bliss excess [14] of -0.0236 and a Bliss excess [15] of -0.0652. The Bliss excess [16] was -0.0242, the Bliss excess [17] was -0.0363 and the Bliss excess [18] was 0.0336. The Bliss excess [19] was -0.0322 and the Bliss excess [20] was -0.0085.
With `NC1(C(=O)N[C@@H](CCO)c2ccc(Cl)cc2)CCN(c2ncnc3[nH]ccc23)CC1` [Capivasertib] + CCN(CCO)CCCOc1ccc2c(Nc3cc(CC(=O)Nc4cccc(F)c4)[nH]n3)ncnc2c1 [AZD2811] (first compound max 10 µM, 7x7, partner max 1 µM) the “combination Emax” value [1] was 0.408, the “combination Emax” value [2] was 0.542 and the “combination Emax” value [3] was 0.156. The “combination Emax” value [4] was 0.501, the “combination Emax” value [5] was 0.925 and the “combination Emax” value [6] was 0.974. The Bliss excess [7] was 0.0431, the Bliss excess [8] was -0.017 and the Bliss excess [9] was -0.0114. It also gave a Bliss excess [10] of -0.0793, a Bliss excess [11] of -0.055 and a Bliss excess [12] of -0.0749. For the same compound, the Bliss excess [13] was -0.0179, the Bliss excess [14] was -0.0598 and the Bliss excess [15] was 0.0344. For the same compound, the Bliss excess [16] was -0.0334, the Bliss excess [17] was -0.036 and the Bliss excess [18] was -0.0743. For the same compound, the Bliss excess [19] was -0.0045 and the Bliss excess [20] was -0.0444.
`NC1(C(=O)N[C@@H](CCO)c2ccc(Cl)cc2)CCN(c2ncnc3[nH]ccc23)CC1` [Capivasertib] + COc1nnc2ccc(N3CCC(c4ccc(OCCN5CCN(C)C(=O)[C@H]5C)cc4)CC3)nn12 [AZD5153] (first compound max 10 µM, 7x7, partner max 1 µM) was tested, and the “combination Emax” value [1] was 0.632, the “combination Emax” value [2] was 0.668 and the “combination Emax” value [3] was 0.108. For the same compound, the “combination Emax” value [4] was 0.648, the “combination Emax” value [5] was 0.885 and the “combination Emax” value [6] was 0.789. The Bliss excess [7] was 0.0423, the Bliss excess [8] was -0.0496 and the Bliss excess [9] was -0.0101. For the same compound, the Bliss excess [10] was 0.0121, the Bliss excess [11] was -0.0161 and the Bliss excess [12] was -0.0084. It also gave a Bliss excess [13] of 0.0335, a Bliss excess [14] of -0.0585 and a Bliss excess [15] of 0.0908. It also gave a Bliss excess [16] of -0.005, a Bliss excess [17] of 0.06 and a Bliss excess [18] of -0.0363. It also gave a Bliss excess [19] of 0.0184 and a Bliss excess [20] of -0.0158.
For `NC1(C(=O)N[C@@H](CCO)c2ccc(Cl)cc2)CCN(c2ncnc3[nH]ccc23)CC1` [Capivasertib] + C[C@@H]1COCCN1C2=NC(=NC(=C2)C3(CC3)[S@](=N)(=O)C)C4=C5C=CNC5=NC=C4 [AZD6738] (first compound max 10 µM, 7x7, partner max 10 µM), the “combination Emax” value [1] was 0.844, the “combination Emax” value [2] was 0.678 and the “combination Emax” value [3] was 0.377. For the same compound, the “combination Emax” value [4] was 0.601, the “combination Emax” value [5] was 0.967 and the “combination Emax” value [6] was 0.876. For the same compound, the Bliss excess [7] was -0.0057, the Bliss excess [8] was -0.0468 and the Bliss excess [9] was -0.0856. It also gave a Bliss excess [10] of -0.0364, a Bliss excess [11] of -0.0086 and a Bliss excess [12] of -0.0192. For the same compound, the Bliss excess [13] was -0.0161, the Bliss excess [14] was -0.0247 and the Bliss excess [15] was -0.0557. It also gave a Bliss excess [16] of 0.0393, a Bliss excess [17] of -0.0739 and a Bliss excess [18] of 0.0172. It also gave a Bliss excess [19] of 0.0028 and a Bliss excess [20] of -0.0376.
For `NC1(C(=O)N[C@@H](CCO)c2ccc(Cl)cc2)CCN(c2ncnc3[nH]ccc23)CC1` [Capivasertib] + Cn1cnc2c(F)c(Nc3ccc(Br)cc3Cl)c(C(=O)NOCCO)cc21 [Selumetinib] (first compound max 10 µM, 7x7, partner max 10 µM), the “combination Emax” value [1] was 0.491, the “combination Emax” value [2] was 0.583 and the “combination Emax” value [3] was 0.18. For the same compound, the “combination Emax” value [4] was 0.564, the “combination Emax” value [5] was 0.903 and the “combination Emax” value [6] was 0.429. For the same compound, the Bliss excess [7] was -0.019, the Bliss excess [8] was 0.0639 and the Bliss excess [9] was 0.0248. For the same compound, the Bliss excess [10] was 0.037, the Bliss excess [11] was -0.0089 and the Bliss excess [12] was 0.0133. It also gave a Bliss excess [13] of -0.133, a Bliss excess [14] of -0.0063 and a Bliss excess [15] of 0.0241. The Bliss excess [16] was 0.0413, the Bliss excess [17] was -0.0194 and the Bliss excess [18] was 0.054. For the same compound, the Bliss excess [19] was 0.0266 and the Bliss excess [20] was 0.0079.
